We go through 14 compounds from patent US20150328109A1, “DERMAL COMPOSITIONS CONTAINING UNNATURAL HYGROSCOPIC AMINO ACIDS” (MEDPHARM LIMITED, priority 2012, published 2015).

Read-outs that look alike come from different tables or passages of the source.

The nature of series [1]: Deliquescence relative humidity (DRH) of a saturated solution in a sealed vessel at 32° C. Type of series: physicochemical. The following applies: saturated solution in water (1 mL), 24 hours. On the procedure: This experiment was to measure the deliquescence relative humidity (DRH) caused by a saturated amino acid solution in a sealed vessel at 32° C.; the lower the DRH, the greater the water holding capacity of the solution measured. Deliquescence relative humidity is the relative humidity at which the compound deliquesces, i.e. the relative humidity in which the compound absorbs so much water that it dissolves within the absorbed water.
The apparatus is maintained at 32° C. The temperature of 32° C. was chosen for being the temperature of outer stratum corneum. As the amino acids are to eventually be delivered to the outer layer of the skin, then the water holding capacity of these compounds at 32° C. is important.
The saturated solution is prepared as above by adding the amino acid to water (1 mL, 32° C.), whilst swirling. The total amino acid is weighed before adding to the water and the remaining amino acid so that the mass of compound used can be determined. The saturated solution (1 mL, 32° C.) is then transferred into the vial, again because of partial molar volume causing a change in volume by the addition of the amino acid to the water.
The temperature and % RH (% Relative Humidity) shown on the thermo-hygrometer are recorded every 30 minutes until the % RH remains constant. The temperature confirms that the temperature experienced by the sample is 32° C.

Series [2] relates to RHE tissues. To be noted: cited from earlier work.
The nature of series [3]: Snake study: water uptake into snake skin after treatment with amino acid solution. Details: species or system Elaphe guttata, the American corn snake. To be noted: 24 h treatment with 1.33M amino acid solution, dried, then 40% RH.
Protocol: • All experiments were performed in triplicate (i.e. three separate solutions, three pieces of skin, one per solution). […] Each piece was weighed and placed directly into one the of the amino acid solutions, one piece of snake skin per solution. • After 1 hour, the snake skin was removed from the solution and blotted dry on filter paper. The weight of the snake skin was recorded before the same snake skin was returned to the amino acid solution. • After an additional 23 hours (24 hours in total), the snake skin was again blotted dry on filter paper and weighed. • The snake skin, now having absorbed the test amino acid, was then placed in a vacuum desiccator over silica (0% RH) for 48 hours before being weighed.
• A 10% w/w concentration solution of each compound is made by stirring the compound (100 mg) in water (1 mL). Three separate solutions of each compound are made separately so that the experiment can be carried out in triplicate simultaneously. […] The weight of the snake skin is recorded before the same snake skin is returned to the same compound solution. • After an additional 23 hours (24 hours in total), the snake skin is again blotted dry on filter paper and weighed. • The snake skin is then placed in a vacuum desiccator over silica (0% relative humidity (RH)) for 48 hours before being weighed. […]
For series [4], the system named is RHE tissues. Description: RHE irritation assessment Method 1: SkinEthic Skin Irritation Test-42 bis assay (MTT), plus 24 h contact time. Type of series: cell-based, human. The following applies: 42 min and 24 h exposure, 5 and 1% w/v α-H-G, 10 and 1% w/v L-h-S in water. The text has this: The purpose of this experiment was to investigate the potential of alpha-hydroxyglycine (α-H-G) and L-homoserine (L-h-S) to cause skin irritation. The method was based on the validated SOP for the “The SkinEthic Skin Irritation Test-42 bis assay” in accordance to OECD guideline Test No. 439: In Vitro Skin Irritation. The protocol is provided in Section 1.2. Further details on the method can be found in the SkinEthic™ RHE SOP, Version 2.1 (July 2009), SkinEthic skin irritation test-42 bis test method for the prediction of acute skin irritation of chemicals: 42 minutes application+42 hours post-incubation. Available at: [http://ecvam.jrc.ec.europa.eu].
In addition, a further experiment was performed where the contact time of the test solution with the tissue was increased to 24 h. Following which point an MTT assay was used to determine the tissue viability and the test solutions potential to cause irritation.
The following steps were completed on receipt of the tissues: • (i) Wells of 6-well plates were filled with 1 mL growth culture medium. • (ii) Tissue were removed from their packaging, cleaned to remove the transport agarose and inspected for signs of damage; damaged tissues were discarded. • (iii) The tissue were transferred into the growth culture medium then incubated at 37° C., 5% CO2 until application of the test solution.
1.2.1.1.6 Applications of 5 and 1% w/v α-H-G and 10 and 1% w/v L-h-S and Controls • (i) 16 μL±0.5 μL of the test solutions (5% w/v α-hydroxyglycine (α-H-G) in water, 1% w/v α-hydroxyglycine (α-H-G) in water, 10% w/v L-homoserine (L-h-S) in water, 1% w/v L-homoserine (L-h-S) in water) and negative (PBS) and positive (5% SDS) controls were dispensed onto the top of the epidermal tissue, using positive displacement pipette. […]

The subject of series [5] is RHE tissues. Description: RHE irritation assessment Method 2: Mattek's MTT effective time (ET-50) assay. Type of series: cell-based, human. The text has this: Method 1 was used to investigate the potential for alpha-hydroxylglycine (α-H-G) and L-homoserine (L-h-S) to cause skin irritation. The protocol is primarily designed and validated for single compounds rather than solutions. Therefore to provide further insight into the potential of N-hydroxyserine and N-hydroxylglycine to cause skin irritation a second protocol was investigated using Mattek's MTT effective time (ET-50) assay which is designed to test mixtures of compounds. In addition two commercially available amino acid related compound (L-serine and glycine) were selected and tested as comparators for N-hydroxyserine and N-hydroxylglycine. […] As a general guideline, the following groupings can be used in assigning expected in vivo irritancy responses based on the ET-50 results obtained: The irritation assessment of the solutions was performed using the protocol described below. Each of the test solutions; […] Damaged tissues were discarded. • (iii) The tissue were transferred into the assay medium and incubated at 37° C., 5% CO2 until the application of the test solutions; […] The working MTT solution was prepared using the following procedure: • (i) MTT concentrate was removed from the freezer and allowed to thaw. The concentrate was diluted with the MTT diluent solution (1 mL of concentrate to 4 mL of MTT diluent solution). • (ii) MTT solution from Step (i) was centrifuged at a g-force of 300 for 5 min to remove any particulates. • (iii) The supernatant of the MTT solution from Step (ii) was stored in the dark at 4° C. for a maximum period of 24 h and used as required. […] The plates were incubated for 3 h (+/−5 min) at 37° C., 5% CO2 and 95% humidified atmosphere. • (vi) The treated tissues were subsequently transferred into a new plate filled with 1 mL of extractant solution. • (vii) The plates were sealed using Parafilm® to stop evaporation and protected from light using foil before extract at 2-8° C. to minimise evaporation. • (viii) Following extraction the RHE tissue were removed from the wells and an additional 1 mL of extractant solution was added. Using a pipette the extraction solution was mixed and made visually homogenous. • (ix) The solution from Step (viii) was transferred in to n=3 wells (200 μL per well) using an automatic pipette of a 96 well plate and the optical density was measured at a wavelength of 570 nm.

Setting [6] is: mass used printed beside the name.

Consider `O=C(O)[C@@H]1CCCN1` [L-Proline], for which the DRH in series [1] (setting [6]) was found to be 44.6%.

In series [1] (setting [6]), `C[C@@H](O)[C@H](N)C(=O)O` [Threonine] showed a DRH of 86.0%.

Turning to `NC(N)=O` [Urea], the DRH in series [1] (setting [6]) is 75.03%.

`N[C@@H](CC(=O)O)C(=O)O` [Aspartic acid] displayed a DRH in series [1] (setting [6]) of 100.0%.

On to `NC(=O)C[C@H](N)C(=O)O` [Asparagine], for which, in series [1] (setting [6]), the DRH amounted to 91.2%.

Turning to `N[C@H](CO)C(=O)O` [D-serine], the DRH turned out to be 85.40% in series [1] (D-serine 0.95 g) and 82.13% in series [1] (D-serine 1.2 g).

In series [1] (setting [6]), `O=[N+]([O-])[O-].O=[N+]([O-])[O-].[Zn+2]` [Zinc Nitrate] registered a DRH of 45.8%.

In series [1] (setting [6]), `N[C@@H](CS)C(=O)O` [Cysteine] came in with a DRH of 89.6%.

Consider `O=[N+]([O-])O` [conc. Nitric acid, Nitric acid], for which, in the series with RHE tissues [2] (guideline groupings of the assay), the “ET-50 (hrs), general guideline examples” value is given as <0.5 strong/severe, possible corrosive hrs.

Turning to `NC(O)C(=O)O` (stereo not drawn) [α-hydroxyglycine, 2-Amino-2-hydroxyacetic acid], the DRH in series [1] (setting [6]) is 79.73%; in series [1] (mass used printed beside the name, listed as Hydroxyglycine), 79.7%. In addition, the “average percentage weight increase after 24 h at 40% RH” value in series [3] is listed as “particularly advantageous properties”. For the same compound, the “skin irritation potential (viability below 50% of negative control = irritant)” value with RHE tissues [4] (listed as alpha-hydroxyglycine) is on record as “non-irritants”; in the series with RHE tissues [4] (listed as α-H-G), “non-irritating”. Also, in the series on RHE tissues [5] (10% w/v N-H-S, 1% w/v N-H-G in water, dosing periods 2, 6 and 24 h), the “ET-50 (exposure time to reduce viability to 50% of the control)” value was less than 24 h. The “expected in vivo irritancy from ET-50” value with RHE tissues [5] (10% w/v N-H-S, 1% w/v N-H-G, 10% w/v L-Serine, 10% w/v Glycine in water) is reported as “non-irritant”.

The compound `NCC(=O)O` [Glycine, reference compound] displayed a DRH in series [1] (setting [6]) of 79.13%. Besides, in the series with RHE tissues [5], the “expected in vivo irritancy from ET-50” value is listed as “non-irritants” and the “impact on the viability of the RHE tissues” value is “no significant impact”.

Take Triton X-100 [1% Triton X-100]: the “ET-50 (hrs), general guideline examples” value in the series on RHE tissues [2] is recorded as 4-12 moderate to mild hrs.

`C[C@H](N)C(=O)O` [Alanine] came in with a DRH in series [1] (setting [6]) of 83.1%.

In turn, `N[C@@H](CO)C(=O)O` [L-serine, reference compound] registered a DRH in series [1] (setting [6]) of 82.53%. In addition, in the series with RHE tissues [5], the “expected in vivo irritancy from ET-50” value is listed as “non-irritants” and the “impact on the viability of the RHE tissues” value is “no significant impact”.
